Experimental data as given in article PMC10478600, “Aryl derivatives of 3H-1,2-benzoxaphosphepine 2-oxides as inhibitors of cancer-related carbonic anhydrase isoforms IX and XII” (Journal of Enzyme Inhibition and Medicinal Chemistry, 2023).

Legend:
[1] = molecular target: T1, CA I (Homo sapiens, UniProt P00915); test: stopped-flow CO2 hydrase assay; format: biochemical; conditions: read-out: KI (μM)^a^,^b / CA I
T1 construct: gene CA1; recombinant
Text: stopped-flow CO2 hydrase assay on CA I

[2] = molecular target: T2, CA II (Homo sapiens, UniProt P00918); test: stopped-flow CO2 hydrase assay; format: biochemical; conditions: read-out: KI (μM)^a^,^b / CA I
T2 construct: gene CA2; recombinant
Text: stopped-flow CO2 hydrase assay on CA II

[3] = molecular target: T2, CA II; test: biochemical; parameters: stopped-flow CO2 hydration assay of recombinant human CA isoforms, inhibition constant; conditions: 6 h incubation
Protocol: (§1) The CA-catalysed CO2 hydration activity was assayed by using an applied photophysics stopped-flow apparatus as reported in previous papers from our group. All CA isoforms were recombinant proteins, obtained as reported earlier. The newly synthesised compounds 7–10 were investigated for their CA inhibition activity against four pharmacologically relevant human CA isoforms—the ubiquitous cytosolic CA I and II as well as the cancer-associated CA IX and XII. In this study, CA I and CA II are considered off-target isoforms, that were tested in order to explore the selectivity of inhibitors towards the CA IX and CA XII isoforms. The clinically utilised acetazolamide (AAZ) was used as a reference drug. The following structure-activity relationship (SAR) can be deduced from the inhibition data reported in Table 1: It is worthwhile to underline here that a 6-h incubation of the enzyme and each compound 7–10 solutions is essential. When the incubation period of 15 min was used for assaying the inhibition, as generally done for the other types of CA inhibitors, only a weak inhibition was observed (data not shown). Furthermore, it appears to be the case with coumarins and related bioisosteres. […]

[4] = molecular target: T1, CA I; test: biochemical; parameters: stopped-flow CO2 hydration assay of recombinant human CA isoforms, inhibition constant; conditions: 6 h incubation
Protocol: as §1

T1 sequence (P00915 2-261): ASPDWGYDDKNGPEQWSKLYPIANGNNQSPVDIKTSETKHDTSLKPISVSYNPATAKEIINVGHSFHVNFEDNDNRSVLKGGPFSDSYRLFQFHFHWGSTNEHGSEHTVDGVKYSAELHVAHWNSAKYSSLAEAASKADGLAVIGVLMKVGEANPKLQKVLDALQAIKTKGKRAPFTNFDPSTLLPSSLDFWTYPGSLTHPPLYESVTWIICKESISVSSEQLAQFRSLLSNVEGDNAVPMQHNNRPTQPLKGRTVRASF

Compound	Ki [1]	Ki [2]	also measured
2-Hydroxy-7-(o-tolyl)-3H-benzo[f][1,2]oxaphosphepine 2-oxide [8i]	–	–	Ki ([1]; […] h incubation): > 100 µM; Ki ([2]; […] h incubation): > 100 µM
7–(3-Fluorophenyl)-2-hydroxy-3H-benzo[f][1,2]oxaphosphepine 2-oxide [8h]	–	–	Ki ([1]; 6 h incubation): > 100 µM; Ki ([2]; 6 h incubation): > 100 µM
O=P1(O)CC=Cc2ccc(Br)cc2O1 [7b, 8-Bromo-2-hydroxy-3H-benzo[f][1,2]oxaphosphepine 2-oxide]	> 100 µM	> 100 µM	–
O=P1(O)CC=Cc2cc(-c3ccccc3)ccc2O1 [8a, 2-Hydroxy-7-phenyl-3H-benzo[f][1,2]oxaphosphepine 2-oxide]	> 100 µM	> 100 µM	–
COc1ccc(-c2ccc3c(c2)C=CCP(=O)(O)O3)cc1 [8b, 2-Hydroxy-7–(4-methoxyphenyl)-3H-benzo[f][1,2]oxaphosphepine 2-oxide]	> 100 µM	> 100 µM	–
CCOC(=O)c1ccc(-c2ccc3c(c2)C=CCP(=O)(O)O3)cc1 [8c, Ethyl 4–(2-hydroxy-2-oxido-3H-benzo[f][1,2]oxaphosphepin-7-yl)benzoate]	> 100 µM	> 100 µM	–
O=P1(O)CC=Cc2cc(-c3ccc(F)cc3)ccc2O1 [8d, 7–(4-Fluorophenyl)-2-hydroxy-3H-benzo[f][1,2]oxaphosphepine 2-oxide]	> 100 µM	> 100 µM	–
O=P1(O)CC=Cc2cc(-c3ccc(Cl)cc3)ccc2O1 [8e, 7–(4-Chlorophenyl)-2-hydroxy-3H-benzo[f][1,2]oxaphosphepine 2-oxide]	> 100 µM	> 100 µM	–
O=P1(O)CC=Cc2cc(-c3ccc(C(F)(F)F)cc3)ccc2O1 [8f, 2-Hydroxy-7–(4-(trifluoromethyl)phenyl)-3H-benzo[f][1,2]oxaphosphepine 2-oxide]	> 100 µM	> 100 µM	–
O=P1(O)CC=Cc2cc(-c3cc(Cl)cc(Cl)c3)ccc2O1 [8g, 7–(3,5-Dichlorophenyl)-2-hydroxy-3H-benzo[f][1,2]oxaphosphepine 2-oxide]	> 100 µM	> 100 µM	–
O=P1(O)CC=Cc2cc(-c3cccc(F)c3)ccc2O1 [8h, 7-(3-Fluorophenyl)-2-hydroxy-3H-benzo[f][1,2]oxaphosphepine 2-oxide]	–	–	Ki [3]: > 100 µM; Ki [4]: > 100 µM
COC(=O)c1cccc(-c2ccc3c(c2)C=CCP(=O)(O)O3)c1 [8j, Methyl 3–(2-hydroxy-2-oxido-3H-benzo[f][1,2]oxaphosphepin-7-yl)benzoate]	> 100 µM	> 100 µM	–
O=[N+]([O-])c1cccc(-c2ccc3c(c2)C=CCP(=O)(O)O3)c1 [8k, 2-Hydroxy-7–(3-nitrophenyl)-3H-benzo[f][1,2]oxaphosphepine 2-oxide]	> 100 µM	> 100 µM	–
CC(C)(C)c1ccc(-c2ccc3c(c2)C=CCP(=O)(O)O3)cc1 [8l, 7–(4-(tert-Butyl)phenyl)-2-hydroxy-3H-benzo[f][1,2]oxaphosphepine 2-oxide]	> 100 µM	> 100 µM	–
O=P1(O)CC=Cc2ccc(-c3ccccc3)cc2O1 [9a, 2-Hydroxy-8-phenyl-3H-benzo[f][1,2]oxaphosphepine 2-oxide]	> 100 µM	> 100 µM	–
COc1ccc(-c2ccc3c(c2)OP(=O)(O)CC=C3)cc1 [9b, 2-Hydroxy-8–(4-methoxyphenyl)-3H-benzo[f][1,2]oxaphosphepine 2-oxide]	> 100 µM	> 100 µM	–
CCOC(=O)c1ccc(-c2ccc3c(c2)OP(=O)(O)CC=C3)cc1 [9c, Ethyl 4–(2-hydroxy-2-oxido-3H-benzo[f][1,2]oxaphosphepin-8-yl)benzoate]	> 100 µM	> 100 µM	–
O=P1(O)CC=Cc2ccc(-c3ccc(Cl)cc3)cc2O1 [9d, 8–(4-Chlorophenyl)-2-hydroxy-3H-benzo[f][1,2]oxaphosphepine 2-oxide]	> 100 µM	> 100 µM	–
O=P1(O)CC=Cc2ccc(-c3cc(Cl)cc(Cl)c3)cc2O1 [9e, 8–(3,5-Dichlorophenyl)-2-hydroxy-3H-benzo[f][1,2]oxaphosphepine 2-oxide]	> 100 µM	> 100 µM	–
O=[N+]([O-])c1ccccc1-c1ccc2c(c1)OP(=O)(O)CC=C2 [9f, 2-Hydroxy-8–(2-nitrophenyl)-3H-benzo[f][1,2]oxaphosphepine 2-oxide]	> 100 µM	> 100 µM	–
O=P1(O)CC=Cc2cccc(-c3ccccc3)c2O1 [10a, 2-Hydroxy-9-phenyl-3H-benzo[f][1,2]oxaphosphepine 2-oxide]	> 100 µM	> 100 µM	–
COc1ccc(-c2cccc3c2OP(=O)(O)CC=C3)cc1 [10b, 2-Hydroxy-9–(4-methoxyphenyl)-3H-benzo[f][1,2]oxaphosphepine 2-oxide]	> 100 µM	> 100 µM	–
CCOC(=O)c1ccc(-c2cccc3c2OP(=O)(O)CC=C3)cc1 [10c, Ethyl 4–(2-hydroxy-2-oxido-3H-benzo[f][1,2]oxaphosphepin-9-yl)benzoate]	> 100 µM	> 100 µM	–
O=P1(O)CC=Cc2cccc(-c3ccc(Cl)cc3)c2O1 [10d, 9–(4-Chlorophenyl)-2-hydroxy-3H-benzo[f][1,2]oxaphosphepine 2-oxide]	> 100 µM	> 100 µM	–
O=P1(O)CC=Cc2cccc(-c3cc(Cl)cc(Cl)c3)c2O1 [10e, 9–(3,5-Dichlorophenyl)-2-hydroxy-3H-benzo[f][1,2]oxaphosphepine 2-oxide]	> 100 µM	> 100 µM	–
O=[N+]([O-])c1ccccc1-c1cccc2c1OP(=O)(O)CC=C2 [10f, 2-Hydroxy-9–(2-nitrophenyl)-3H-benzo[f][1,2]oxaphosphepine 2-oxide]	> 100 µM	> 100 µM	–
